The values that follow come from patent US6642228B1, “α1b-adrenergic receptor antagonists” (Toray Industries, Inc., priority 1999, dated 2003).

Structures are written as SMILES. Where a name gives a salt, the structure may show the parent alone.

Test [1] deals with T1, α1A adrenoceptor (Rattus norvegicus, UniProt P43140).
T1 construct: a 43,000×g precipitation fraction was prepared from a rat submaxillary gland, and this was used as a crude membrane preparation; from tissue; host or cells: submaxillary gland of Sprague-Dawley male rat, crude membrane preparation
T1 sequence (P43140 1-466): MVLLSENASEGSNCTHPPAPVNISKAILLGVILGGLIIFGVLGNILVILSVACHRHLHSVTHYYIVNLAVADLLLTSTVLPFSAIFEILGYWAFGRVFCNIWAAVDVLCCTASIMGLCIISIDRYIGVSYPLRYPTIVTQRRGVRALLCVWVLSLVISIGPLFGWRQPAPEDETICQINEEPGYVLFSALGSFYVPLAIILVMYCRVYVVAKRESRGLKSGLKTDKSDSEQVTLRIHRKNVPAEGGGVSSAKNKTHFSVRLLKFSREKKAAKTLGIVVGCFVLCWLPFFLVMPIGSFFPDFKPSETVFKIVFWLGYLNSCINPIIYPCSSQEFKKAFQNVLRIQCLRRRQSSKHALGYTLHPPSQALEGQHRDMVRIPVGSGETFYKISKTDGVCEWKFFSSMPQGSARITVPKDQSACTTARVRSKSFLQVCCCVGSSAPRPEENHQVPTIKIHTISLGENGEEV
In words: Binding to α1A adrenoceptor, [3H] prazosin, rat submaxillary gland crude membrane preparation. Conditions: 0.5 nM [3H] prazosin, 25° C., 30 minutes. As to the method:
All experiments were performed at temperatures between 0° C. and 4° C. As an α1A adrenoceptor preparation, a 43,000×g precipitation fraction was prepared from a rat submaxillary gland, and this was used as a crude membrane preparation in the experiment.
A Sprague-Dawley male rat was exsanguinated under ether anesthesia, and the submaxillary gland was isolated, was weighed and was cut to pieces with scissors. The cut gland was put into a Potter-Elvehjem type Teflon homogenizer, and was homogenized with 5 times by volume (5 mL per 1 g of the wet weight of the submaxillary gland) of a 50 mM Tris-HCl buffer (pH=7.4) containing 5 mM EDTA, 0.2 mM DTT, and 0.1 mM PMSF. The resulting homogenate was allowed to pass through a nylon mesh and was centrifuged at 800×g for 10 minutes, and the resulting supernatant was centrifuged at 43,000×g for 15 minutes. The precipitate was suspended in a 50 mM Tris-HCl buffer (pH=7.4) (Buffer A) containing 10 mM MgCl2, 0.2 mM DTT, and 0.1 mM PMSF and was then centrifuged at 43,000×g for 15 minutes. The resulting precipitate was suspended in Buffer A to a protein concentration of about 10 mg/mL, and the suspension was used as the crude membrane preparation.
(§1) Each of the crude membrane preparations was dispensed and was stored at −80° C. and was subjected to the experiment on use. The protein concentration was determined by Lowry method using bovine serum albumin as a standard.
(§2) Buffer A (400 μL) containing 0.5 nM [3H] prazosin and 200 μg crude membrane preparation was used as a standard reaction solution. The receptor preparation and [3H] prazosin were incubated at 25° C. for 30 minutes, and 2 mL of cold Buffer A was added to terminate the reaction. […] The same experimental procedure was performed in the presence of 10 μM phentolamine to thereby determine a nonspecific binding activity. A specific binding activity was calculated by subtracting the nonspecific binding activity from the total binding activity.
(§3) A solution ofa test drug was prepared by dissolving the test drug to 10 mM in distilled water, ethanol, or DMSO, and serially diluting the solution with distilled water.
(§4) Kd values and Bmax values were determined using Scatchard plots. Dissociation constant Ki (riM) of each compound was determined according to the following equation.
(§5) Ki=IC50/[1+(radioactive ligand concentration/Kd)]

Test [2] concerns the target T2, α1B adrenoceptor (Rattus norvegicus, UniProt P15823).
T2 construct: a 100,000×g precipitation fraction was prepared from a rat liver and this was used as a crude membrane preparation; from tissue; host or cells: liver of Sprague-Dawley male rat, crude membrane preparation
T2 sequence (P15823 1-515): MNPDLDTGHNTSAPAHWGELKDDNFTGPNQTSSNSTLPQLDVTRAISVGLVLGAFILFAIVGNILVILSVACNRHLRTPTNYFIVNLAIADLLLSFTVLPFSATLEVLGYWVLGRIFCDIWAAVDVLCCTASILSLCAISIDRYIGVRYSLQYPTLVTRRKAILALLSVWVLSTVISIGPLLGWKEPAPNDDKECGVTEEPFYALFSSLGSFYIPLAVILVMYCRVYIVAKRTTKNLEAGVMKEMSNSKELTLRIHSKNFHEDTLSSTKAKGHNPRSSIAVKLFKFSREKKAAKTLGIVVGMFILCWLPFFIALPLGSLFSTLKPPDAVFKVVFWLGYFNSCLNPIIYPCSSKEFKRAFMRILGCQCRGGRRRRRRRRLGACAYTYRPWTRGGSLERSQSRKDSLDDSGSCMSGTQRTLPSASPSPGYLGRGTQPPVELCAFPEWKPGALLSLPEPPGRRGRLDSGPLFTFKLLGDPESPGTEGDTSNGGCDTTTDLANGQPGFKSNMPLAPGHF
In words: Binding to α1B adrenoceptor, [3H] prazosin, rat liver crude membrane preparation. The conditions noted are these: 0.5 nM [3H] prazosin, 25° C., 30 minutes. Here is the method:
As an α1B adrenoceptor preparation, a 100,000×g precipitation fraction was prepared from a rat liver and this was used as a crude membrane preparation in the experiment.
A Sprague-Dawley male rat was exsanguinated under ether anesthesia, and the liver was isolated, was weighed and was cut into pieces with scissors. The cut liver was put into a Potter-Elvehjem type Teflon homogenizer, and was homogenized with 9 times by volume (9 mL per 1 g of the wet weight of the liver) of a 50 mM Tris-HCl buffer (pH 7.4) containing 0.25 M sucrose, 10 mM MgCl2, 1 mM EDTA, 0.2 mM DTT, and 0.1 mM PMSF. The homogenate was centrifuged at 800×g for 10 minutes, and the resulting supernatant was centrifuged at 100,000×g for 10 minutes, and the supernatant was then further centrifuged at 100,000×g for 60 minutes. The precipitate obtained by centrifugation was suspended in a 50 mM Tris-HCl buffer (pH=7.4) (Buffer A) containing 10 mM MgCl2, 0.2 mM DTT, and 0.1 mM PMSF to a protein concentration of about 10 mg/mL, and the suspension was used as the crude membrane preparation.
as §1, §2, §3, §4, §5

Test [3] has as its system vasopressor response induced by phenylephrine (an α1 adrenoceptor agonist). In words: Inhibitory activity against vasopressor response induced by phenylephrine in rats under anesthesia. Conditions: continuous i.v. infusion, 15 minutes after administration, phenylephrine 3 μg/kg, mean ± standard error. The format is in vivo, rat. Here is the method: The inhibitory activity of the α1B adrenoceptor antagonist according to Example 23 against vasopressor response induced by phenylephrine (an α1 adrenoceptor agonist) in rats under anesthesia was studied. […] The compound was dissolved in physiological saline, and was infused into the femoral vein at a rate of 20 μl/kg/min. Phenylephrine was dissolved in physiological saline and was bolus injected at a dose of 0.2 ml/kg (3 μg/kg). The inhibition rate was calculated according to the following equation.
Inhibition rate (7)=[1—(pressure increase induced by phenylephrine 15 minutes after administration of the example compound)/(pressure increase induced by phenylephrine before administration of the example compound)]×100

Broadly, the Ki is a dissociation constant, usually derived from enzyme kinetics or from competition with a known ligand. A high value points to weaker binding. Turning to `c1ccc2c(c1)CN(CCCN1CCC(c3c[nH]c4ccccc34)CC1)C2` [Example 14, 3-(1-(3-Isoindolin-2-ylpropyl)-4-piperidyl)indole Hydrochloride], the Ki in test [1] was determined as 0.05 µM; in test [2], 0.0036 µM.
The like results for `c1ccc2c(c1)CN(CCCCN1CCC(c3c[nH]c4ccccc34)CC1)C2` [Example 15, 3-(1-(4-Isoindolin-2-ylbutyl)-4-piperidyl)indole Hydrochloride] were, in that order, 0.03 µM and 0.0014 µM.
The corresponding values for `c1ccc2c(c1)CN(CCCCCN1CCC(c3c[nH]c4ccccc34)CC1)C2` [Example 16, 3-(1-(5-Isoindolin-2-ylpentyl)-4-piperidyl)indole] are 0.082 µM and 0.0016 µM.
The corresponding values for `Fc1ccc2c(C3CCN(CCCN4CCCCC4)CC3)c[nH]c2c1` [Example 21, 6-Fluoro-3-(1i-(3-Piperidylpropyl)-4-piperidyl)indole Hydrochloride] are 0.021 µM and 0.00063 µM.
`Fc1ccc2c(C3CCN(CCCN4Cc5ccccc5C4)CC3)c[nH]c2c1` [Example 23, 6-Fluoro-3-(1-(3-Isoindolin-2-ylpropyl)-4-piperidyl)indole Hydrochloride]: the Inhibition rate in test [3] (dose 0.1 mg/kg/min) was 24 ± 5%; in test [3] (dose 0.3 mg/kg/min), 47 ± 5%; in test [3] (dose 1 mg/kg/min), 72 ± 5%; in test [3] (dose 3 mg/kg/min), 86 ± 2%. Moreover, the Ki in test [1] came out at 0.018 µM; in test [2], 0.00079 µM.
For the molecule `c1ccc(C2CCN(CCCN3CCC(c4ccccc4)CC3)CC2)cc1` [Reference Example 21, 4-Phenyl-1-(3-(4-phenylpiperidyl)propyl)piperidine Hydrochloride, reference compound], the Ki in test [1] worked out at 0.87 µM; in test [2], 0.86 µM.
